Laboratory results reported in patent US20260053811A1, “METHODS OF TREATING HYPERTENSION IN OBESE SUBJECTS” (Mineralys Therapeutics, Inc., priority 2022, published 2026).

System: hypertensive subjects
Assay: Seated automated office blood pressure (AOBP) in randomized, placebo-controlled, dose-ranging study
Assay type: in vivo, human
Details: Part 1
Experimental: A randomized, double-blinded, placebo-controlled, dose-ranging, multicenter study was conducted to evaluate the effect of orally administered Compound A HBr on blood pressure for the treatment of hypertension in male and female subjects ≥18 years of age.
The study consists of two parts. For enrollment into Part 1 of the study, a subject's value of plasma renin activity (PRA) must be ≤1 ng/mL/h based on morning measurement. If the value of PRA >1 ng/mL/h based on morning measurement, then subjects may be eligible to enter Part 2 of the study.
For Part 1, 163 enrolled subjects ≥18 years of age were randomized into 6 equal treatment groups (1:1:1:1:1:1) to 12.5 mg BID, 25 mg BID, 12.5 mg QD, 50 mg QD, 100 mg QD, or placebo. After a review of interim clinical data, the 2 lowest dose levels (12.5 mg QD and 12.5 mg BID) were stopped for future randomization due to a lack of consistent meaningful reduction of blood pressure, but the patients randomized to that point remained in the study through completion. Thus, after the review of interim clinical data, subjects were randomized into 4 equal treatment groups (1:1:1:1) to 25 mg BID, 50 mg QD, 100 mg QD, or placebo.
For Part 2, 36 enrolled subjects ≥18 years of age were randomized (5:1) to either 100 mg QD Compound A HBr or placebo such that the Compound A HBr treatment group consisted of approximately 30 subjects and the placebo treatment group will consist of approximately 6 subjects.
Subjects orally administered the assigned study drug (Compound A HBr or placebo) according to the assigned dosing regimen for 8 weeks beginning on Study Day 1. All subjects in Part 1 (regardless of dosing group) received BID dosing to preserve the integrity of the blind; active drug is administered as the morning dose for all QD dose groups. Subjects returned to the research facility or were seen by the clinical investigator or approved home health care professional at the end of Study Weeks 1, 2, 3, 4, 5, 6, 7, and 8 (±2 days) for protocol-defined efficacy and safety assessments and procedures, assessment of adverse events (AEs), and confirmation of compliance with study drug usage. Subjects also completed a telephone visit and blood pressure (BP) check at home approximately 3 days post last dose of study drug. Subjects attended up to 14 full clinic visits, including a pre-Screening visit, a Screening/start of Placebo Run-in visit, a second visit during Placebo Run-in, a clinic visit to initiate the ABPM procedure, a Randomization visit, 8 weekly visits during double-blind treatment, and an end-of-study visit scheduled 4 weeks after the last study treatment for final efficacy and safety assessments.
An automated oscillometric sphygmomanometer device was used to measure the subjects' systolic and diastolic blood pressure in office after approximately 5 minutes of rest in the seated position.
The primary endpoint is the change in office-measured (mean of last 2 of 5 unattended measurements using an automated oscillometric sphygmomanometer device after approximately 5 minutes of rest in the seated position) systolic blood pressure (SBP) from baseline to the end of Study Week 8.
Secondary endpoints of this study were: • (a) Change in 24-hour ambulatory blood pressure monitoring (ABPM) parameters (systolic and diastolic) from baseline to the end of Study Week 7. • (b) Change in office-measured SBP from baseline to the end of Study Weeks 1, 2, 3, 4, 5, 6, and 7. • (c) Change in office-measured diastolic blood pressure (DBP) from baseline to the end of Study Weeks 1, 2, 3, 4, 5, 6, 7, and 8. • (d) Proportion of subjects who achieve office-measured BP of ≤130/80 mm Hg by the end of Study Week 8.

[1] = 12.5 mg BID, Seated SBP Tertile High
[2] = 12.5 mg BID, Seated SBP Tertile Middle
[3] = 12.5 mg BID, Systolic Blood Pressure Tertile at Baseline High
[4] = 12.5 mg BID, Systolic Blood Pressure Tertile at Baseline Low
[5] = 12.5 mg BID, Systolic Blood Pressure Tertile at Baseline Middle
[6] = 12.5 mg BID, Thiazide Diuretic Use at Baseline No
[7] = 12.5 mg BID, Thiazide Diuretic Use at Baseline Yes

In the case of `CC(=O)N[C@H]1CC[C@H](NC(=O)CN2CCN(c3nncc(-c4ccc(C)cc4)n3)CC2)CC1` [Compound A HBr], the “Mean (SD) Change from Baseline at Week 8 in Automated Office-Measured Diastolic Blood Pressure” value (12.5 mg BID, Race Black or AA) is reported as 0.21 (7.03) mmHg, the “Mean (SD) Change from Baseline at Week 8 in Automated Office-Measured Systolic Blood Pressure” value (12.5 mg BID, Race Black or AA) is reported as −7.43 (20.17) mmHg and the “Mean (SD) Automated Office-Measured Diastolic Blood Pressure at Wk 8” value (12.5 mg BID, Race Other) is reported as 72.92 (10.54) mmHg. For the same compound, the “Mean (SD) Automated Office-Measured Systolic Blood Pressure at Wk 8” value (12.5 mg BID, Race Other) was 128.50 (11.84) mmHg, the “Mean (SD) Change from Baseline at Week 8 in Automated Office-Measured Diastolic Blood Pressure” value (12.5 mg BID, Race Other) was −9.38 (7.89) mmHg and the “Mean (SD) Change from Baseline at Week 8 in Automated Office-Measured Systolic Blood Pressure” value (12.5 mg BID, Race Other) was −17.50 (15.80) mmHg. The “Mean (SD) Automated Office-Measured Diastolic Blood Pressure at Wk 8” value [1] was 74.86 (11.87) mmHg, the “Mean (SD) Change from Baseline at Week 8 in Automated Office-Measured Diastolic Blood Pressure” value [1] was −6.93 (7.79) mmHg and the “Mean (SD) Automated Office-Measured Diastolic Blood Pressure at Wk 8” value (12.5 mg BID, Seated SBP Tertile Low) was 78.50 (9.88) mmHg. The “Mean (SD) Automated Office-Measured Diastolic Blood Pressure at Wk 8” value [2] was 73.88 (9.48) mmHg, the “Mean (SD) Change from Baseline at Week 8 in Automated Office-Measured Diastolic Blood Pressure” value [2] was −6.69 (10.60) mmHg and the “Mean (SD) Automated Office-Measured Diastolic Blood Pressure at Wk 8” value (12.5 mg BID, Sex Female) was 74.07 (10.32) mmHg. The “Mean (SD) Automated Office-Measured Systolic Blood Pressure at Wk 8” value (12.5 mg BID, Sex Female) was 131.00 (14.17) mmHg, the “Mean (SD) Change from Baseline at Week 8 in Automated Office-Measured Diastolic Blood Pressure” value (12.5 mg BID, Sex Female) was −5.25 (9.78) mmHg and the “Mean (SD) Change from Baseline at Week 8 in Automated Office-Measured Systolic Blood Pressure” value (12.5 mg BID, Sex Female) was −12.46 (18.69) mmHg. The “Mean (SD) Automated Office-Measured Systolic Blood Pressure at Wk 8” value [3] was 131.86 (14.81) mmHg, the “Mean (SD) Change from Baseline at Week 8 in Automated Office-Measured Systolic Blood Pressure” value [3] was −24.93 (18.46) mmHg and the “Mean (SD) Automated Office-Measured Systolic Blood Pressure at Wk 8” value [4] was 132.25 (10.34) mmHg. The “Mean (SD) Change from Baseline at Week 8 in Automated Office-Measured Systolic Blood Pressure” value [4] was −0.75 (5.48) mmHg, the “Mean (SD) Automated Office-Measured Systolic Blood Pressure at Wk 8” value [5] was 131.75 (14.00) mmHg and the “Mean (SD) Change from Baseline at Week 8 in Automated Office-Measured Systolic Blood Pressure” value [5] was −10.56 (16.34) mmHg. The “Automated Office-Measured Diastolic Blood Pressure, Week 8, Mean (SD)” value [6] was 79.57 (10.75) mmHg, the “Mean (SD) Automated Office-Measured Systolic Blood Pressure at Wk 8” value [6] was 139.29 (13.28) mmHg and the “Mean (SD) Change from Baseline at Week 8 in Automated Office-Measured Diastolic Blood Pressure” value [6] was −3.29 (8.80) mmHg. The “Mean (SD) Change from Baseline at Week 8 in Automated Office-Measured Systolic Blood Pressure” value [6] was −4.43 (15.93) mmHg, the “Automated Office-Measured Diastolic Blood Pressure, Week 8, Mean (SD)” value [7] was 72.67 (9.15) mmHg and the “Mean (SD) Automated Office-Measured Systolic Blood Pressure at Wk 8” value [7] was 127.58 (11.07) mmHg. For the same compound, the “Mean (SD) Change from Baseline at Week 8 in Automated Office-Measured Diastolic Blood Pressure” value [7] was −7.33 (8.79) mmHg, the “Mean (SD) Change from Baseline at Week 8 in Automated Office-Measured Systolic Blood Pressure” value [7] was −19.25 (16.90) mmHg and the “Mean (SD) Automated Office-Measured Systolic Blood Pressure at Wk 8” value (12.5 mg QD, ACEi/ARB No) was 138.25 (20.45) mmHg. The “Mean (SD) Change from Baseline at Week 8 in Automated Office-Measured Systolic Blood Pressure” value (12.5 mg QD, ACEi/ARB No) was −8.50 (31.61) mmHg, the “Mean (SD) Automated Office-Measured Systolic Blood Pressure at Wk 8” value (12.5 mg QD, ACEi/ARB Yes) was 141.50 (23.12) mmHg and the “Mean (SD) Change from Baseline at Week 8 in Automated Office-Measured Systolic Blood Pressure” value (12.5 mg QD, ACEi/ARB Yes) was −6.39 (16.84) mmHg. The “Mean (SD) Automated Office-Measured Diastolic Blood Pressure at Wk 8” value (12.5 mg QD, ACEi/ARBs No) was 73.25 (13.50) mmHg, the “Mean (SD) Change from Baseline at Week 8 in Automated Office-Measured Diastolic Blood Pressure” value (12.5 mg QD, ACEi/ARBs No) was −5.50 (11.85) mmHg and the “Mean (SD) Automated Office-Measured Diastolic Blood Pressure at Wk 8” value (12.5 mg QD, ACEi/ARBs Yes) was 83.79 (17.89) mmHg. For the same compound, the “Mean (SD) Change from Baseline at Week 8 in Automated Office-Measured Diastolic Blood Pressure” value (12.5 mg QD, ACEi/ARBs Yes) was −0.71 (13.94) mmHg, the “Mean (SD) Automated Office-Measured Diastolic Blood Pressure at Wk 8” value (12.5 mg QD, AHTs 2) was 80.80 (18.35) mmHg and the “Mean (SD) Automated Office-Measured Systolic Blood Pressure at Wk 8” value (12.5 mg QD, AHTs 2) was 142.80 (25.41) mmHg. The “Mean (SD) Change from Baseline at Week 8 in Automated Office-Measured Diastolic Blood Pressure” value (12.5 mg QD, AHTs 2) was −4.60 (10.04) mmHg, the “Mean (SD) Change from Baseline at Week 8 in Automated Office-Measured Systolic Blood Pressure” value (12.5 mg QD, AHTs 2) was −9.70 (21.49) mmHg and the “Mean (SD) Automated Office-Measured Diastolic Blood Pressure at Wk 8” value (12.5 mg QD, AHTs ≥3) was 82.25 (16.96) mmHg. For the same compound, the “Mean (SD) Automated Office-Measured Systolic Blood Pressure at Wk 8” value (12.5 mg QD, AHTs ≥3) was 138.25 (18.26) mmHg, the “Mean (SD) Change from Baseline at Week 8 in Automated Office-Measured Diastolic Blood Pressure” value (12.5 mg QD, AHTs ≥3) was 1.75 (16.61) mmHg and the “Mean (SD) Change from Baseline at Week 8 in Automated Office-Measured Systolic Blood Pressure” value (12.5 mg QD, AHTs ≥3) was −3.31 (18.37) mmHg. For the same compound, the “Mean (SD) Automated Office-Measured Diastolic Blood Pressure at Wk 8” value (12.5 mg QD, Age 65-79 yr) was 77.25 (5.52) mmHg.
